The subject of experiment [1] is C. elegans complex III (decylubiquinol-cytochrome C reductase). The experiment in a line: In vitro complex III activity assay, C. elegans mitochondria. The format is biochemical, Caenorhabditis elegans. The conditions noted are these: for % Activity Complex III: 100 µM compound, relative to solvent control, mean (SEM); for Percent in vitro activity, Complex III (single replicate Rep1-Rep4) / Percent in vitro activity, Complex III (Mean): 100 μM of NPD compound, C. elegans mitochondria; for Percent in vitro activity, Complex III (single replicate Rep1-Rep4): individual biological replicates; for Percent in vitro activity, Complex III (Mean): mean of four biological replicates. The gist of the method:
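Mitochondria were isolated from adult C. elegans by bead-beating and differential centrifugation, then used at 0.2 mg/mL protein. Antimycin A-sensitive complex III activity was followed as decylubiquinol-driven cytochrome C reduction at 550 nm every 30 s for 15 min. Initial linear slopes were expressed as percent of solvent control.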

Experiment [2] deals with C. elegans complex II (succinate dehydrogenase) (Caenorhabditis elegans, UniProt O62215+P41956+Q09545). The experiment in a line: In vitro complex II activity assay, C. elegans mitochondria. As to conditions: for Percent in vitro activity, Complex II (single replicate Rep1-Rep4): individual biological replicates, 100 µM. Type of experiment: biochemical. The gist of the method: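 Mitochondria isolated from adult C. elegans were diluted to 0.2 mg/mL protein and assayed for complex II by the DCIP-coupled method. A600 was read every 30 s over 15 min, with initial linear slope expressed as percent of solvent control. Screening was at 100 μM (≥3 biological replicates), followed by dose-response.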

Experiment [3] deals with C. elegans complex IV (cytochrome C oxidase). The experiment in a line: In vitro complex IV activity assay, C. elegans mitochondria. As to conditions: for % Activity Complex IV: 100 µM compound, relative to solvent control, mean (SEM); for Percent in vitro activity, Complex IV (single replicate Rep1-Rep4) / Percent in vitro activity, Complex IV (Mean): 100 μM of NPD compound, C. elegans mitochondria; for Percent in vitro activity, Complex IV (single replicate Rep1-Rep4): individual biological replicates; for Percent in vitro activity, Complex IV (Mean): mean of four biological replicates. The format is biochemical, Caenorhabditis elegans. The gist of the method: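 Cytochrome C oxidase activity read spectrophotometrically at 550 nm (30 s intervals, 15 min) as oxidation of freshly DTT-reduced CytC. Mitochondria (0.2 mg/mL) came from adult worms of six C. elegans strains grown at 20 °C. Rates were taken from initial linear phase and normalised to solvent-control wells.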

Where [4] appears, read: 100 µM compound, relative to solvent control, mean (SEM), read-out: % Activity Complex II.
Setting [5] is: 100 μM of NPD compound, C. elegans mitochondria.
Setting [6] is: 100 μM of NPD compound, C. elegans mitochondria, mean of four biological replicates, read-out: Percent in vitro activity, Complex II (Mean).

Several values for one entry are separate records, joined by “and”; a condition that tells them apart may be missing. Equal values may be shown once. Read-outs that look alike come from different tables or passages of the source.

Chain of C. elegans complex II (succinate dehydrogenase) (P41956 30-182): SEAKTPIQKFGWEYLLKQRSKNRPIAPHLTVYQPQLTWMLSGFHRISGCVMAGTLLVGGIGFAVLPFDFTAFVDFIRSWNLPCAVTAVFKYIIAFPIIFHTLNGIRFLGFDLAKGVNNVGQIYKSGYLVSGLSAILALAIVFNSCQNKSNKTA
Chain of C. elegans complex II (succinate dehydrogenase) (Q09545 22-298): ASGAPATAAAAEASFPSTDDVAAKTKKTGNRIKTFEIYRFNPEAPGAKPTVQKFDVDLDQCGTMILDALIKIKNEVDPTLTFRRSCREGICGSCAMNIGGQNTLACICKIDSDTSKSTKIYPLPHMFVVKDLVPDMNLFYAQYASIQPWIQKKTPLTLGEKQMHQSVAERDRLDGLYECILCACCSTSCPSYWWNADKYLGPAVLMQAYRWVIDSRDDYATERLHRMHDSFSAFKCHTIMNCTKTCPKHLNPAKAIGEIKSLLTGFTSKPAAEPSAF
Chain of C. elegans complex II (succinate dehydrogenase) (Q09508 32-646, further chain): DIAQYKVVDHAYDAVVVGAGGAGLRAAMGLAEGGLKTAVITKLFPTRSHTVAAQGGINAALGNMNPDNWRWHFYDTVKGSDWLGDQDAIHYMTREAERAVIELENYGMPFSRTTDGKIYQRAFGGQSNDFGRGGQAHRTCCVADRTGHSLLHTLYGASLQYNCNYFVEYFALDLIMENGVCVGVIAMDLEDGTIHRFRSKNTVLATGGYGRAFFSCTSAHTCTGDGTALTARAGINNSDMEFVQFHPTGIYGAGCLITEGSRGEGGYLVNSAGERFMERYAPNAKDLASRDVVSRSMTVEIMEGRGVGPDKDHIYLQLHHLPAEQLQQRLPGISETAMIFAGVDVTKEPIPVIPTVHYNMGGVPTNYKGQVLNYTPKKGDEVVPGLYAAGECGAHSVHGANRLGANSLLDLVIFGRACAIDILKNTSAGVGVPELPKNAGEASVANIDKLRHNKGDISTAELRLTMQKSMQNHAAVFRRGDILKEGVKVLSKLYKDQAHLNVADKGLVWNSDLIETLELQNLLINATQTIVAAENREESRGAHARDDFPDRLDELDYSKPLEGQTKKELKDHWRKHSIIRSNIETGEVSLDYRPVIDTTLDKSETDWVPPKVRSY
Chain of C. elegans complex II (succinate dehydrogenase) (O62215 31-145): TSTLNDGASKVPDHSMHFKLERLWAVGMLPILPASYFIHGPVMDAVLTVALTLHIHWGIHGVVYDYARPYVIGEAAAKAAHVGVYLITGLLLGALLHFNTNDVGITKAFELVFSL

`COc1cc2c(cc1OC)C(c1ccc(-c3ccc(Cl)c(Cl)c3)o1)=NCC2` [NPD3577]: in experiment [1], the “% Activity Complex III” value is 65.54 (2.59) %; the “Percent in vitro activity, Complex III (single replicate Rep1-Rep4)” value was 80.555% and 63.410% and 61.250% and 56.942%; the “Percent in vitro activity, Complex III (Mean)” value (“Percent … Complex III (Mean)” for short) is listed as 65.539%. In addition, the activity at 100 µM in experiment [2] (setting [4]) came to 115%. The “Percent in vitro activity, Complex II (single replicate Rep1-Rep4)” value in experiment [2] (setting [5]) is 133.014% and 126.621% and 103.513% and 97.309%. The activity at 100 µM in experiment [2] (setting [6]) is 115%. For the same compound, in experiment [3], the “% Activity Complex IV” value is given as 81.06 (2.34) %; the “Percent in vitro activity, Complex IV (single replicate Rep1-Rep4)” value was 78.287% and 81.122% and 71.227% and 93.621%; the “Percent in vitro activity, Complex IV (Mean)” value (shortened to “Percent … Complex IV (Mean)”) is listed as 81.064%.
For the compound `COc1cc2c(cc1OC)C(/C=C/c1ccc(N(C)C)cc1)=NCC2` [NPD6303], in experiment [1], the “% Activity Complex III” value is on record as 78.10 (1.39) %; the “Percent in vitro activity, Complex III (single replicate Rep1-Rep4)” value is 81.950% and 83.314% and 71.366% and 75.773%; the “Percent … Complex III (Mean)” value is 78.101%. In experiment [2] (setting [4]), the activity at 100 µM came to 101%. Besides, the “Percent in vitro activity, Complex II (single replicate Rep1-Rep4)” value in experiment [2] (setting [5]) was 124.122% and 89.817% and 91.578% and 100.352%. For the same compound, in experiment [2] (setting [6]), the activity at 100 µM is 101%. In experiment [3], the “% Activity Complex IV” value is recorded as 83.07 (1.76) %; the “Percent in vitro activity, Complex IV (single replicate Rep1-Rep4)” value was 86.689% and 90.588% and 80.321% and 74.685%; the “Percent … Complex IV (Mean)” value was 83.071%.
Regarding `COc1cc2c(cc1OC)C(C(C)c1ccc(CC(C)C)cc1)=NCC2` (stereo not drawn) [NPD10504], in experiment [1], the “% Activity Complex III” value is 79.51 (1.51) %; the “Percent in vitro activity, Complex III (single replicate Rep1-Rep4)” value was 86.667% and 75.479% and 82.250% and 73.635%; the “Percent … Complex III (Mean)” value amounted to 79.508%. Besides, the activity at 100 µM in experiment [2] (setting [4]) was found to be 106%. In experiment [2] (setting [5]), the “Percent in vitro activity, Complex II (single replicate Rep1-Rep4)” value is 86.801% and 136.285% and 101.347% and 99.840%. The activity at 100 µM in experiment [2] (setting [6]) is 106%. Also, in experiment [3], the “% Activity Complex IV” value is recorded as 74.57 (1.35) %; the “Percent in vitro activity, Complex IV (single replicate Rep1-Rep4)” value is 71.688% and 71.402% and 72.596% and 82.587%; the “Percent … Complex IV (Mean)” value was 74.568%.

The values above are taken from paper PMC11079024, “Identification of a family of species-selective complex I inhibitors as potential anthelmintics” (Nature Communications, 2024).
